Assay results taken from the NIST ThermoML archive (doi:10.1021/acs.jced.6b00680).

How the values were obtained:
[1] = an = ratio of the nth substance listed; settings: 100 kPa, Liquid, Concentric cylinders viscometry
[2] = 101.33 kPa, Liquid, Concentric cylinders viscometry

C[N+](C)(C)CCO.[Cl-] [choline chloride] + OCCO
[1], a2 = 2
Settings	viscosity [mPa·s]
293.2 K	60.9
298.2 K	51.4
303.2 K	44.3
308.2 K	38.1
313.2 K	33.5
318.2 K	29.4
323.2 K	26.1
328.2 K	23.3
333.2 K	21.1
338.2 K	19.3
343.2 K	17.6
348.2 K	16.3
353.2 K	15.2

OCC(O)CO [glycerol]
[2]
Settings	viscosity [mPa·s]
296.5 K	1252
302.8 K	673.4
315.8 K	260.6
323.2 K	148.9
332.7 K	97.5
343.2 K	51.9
348.2 K	42.8
354.2 K	34.9

NC(N)=O [urea] + C[N+](C)(C)CCO.[Cl-]
[1], a1 = 2
Settings	viscosity [mPa·s]
293.2 K	1685.8
298.2 K	1012.3
303.2 K	658.5
308.2 K	454.9
313.2 K	333.6
318.2 K	259.8
323.2 K	210.6
328.2 K	179.5
333.2 K	160.8
338.2 K	142.6
343.2 K	129
348.2 K	115.6
353.2 K	106.7
